According to US9428456B2, “1-[m-carboxamido(hetero)aryl-methyl]-heterocyclyl-carboxamide derivatives” (Actelion Pharmaceuticals Ltd., priority 2012, dated 2016):

Biological target: CXCR7 (Homo sapiens (Human), UniProt P25106)
Assay: PathHunter CHO-K1 CXCR7 b-arrestin assay (agonistic activity)
Assay type: cell-based
Details: PathHunter CHO-K1 CXCR7 b-arrestin cell line
Procedure, shortened: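 CHO-K1 cells co-expressing ProLink-tagged CXCR7 and EA-fused β-arrestin 2 (enzyme fragment complementation); compounds added in HBSS/20 mM HEPES/0.2% BSA after 3–4 h in OPTIMEM, 90 min at 37 °C. Chemiluminescent β-gal signal read after 1 h detection at room temperature; EC50 reported as geometric mean of several measurements.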

CXCR7, sequence (P25106 whole entry): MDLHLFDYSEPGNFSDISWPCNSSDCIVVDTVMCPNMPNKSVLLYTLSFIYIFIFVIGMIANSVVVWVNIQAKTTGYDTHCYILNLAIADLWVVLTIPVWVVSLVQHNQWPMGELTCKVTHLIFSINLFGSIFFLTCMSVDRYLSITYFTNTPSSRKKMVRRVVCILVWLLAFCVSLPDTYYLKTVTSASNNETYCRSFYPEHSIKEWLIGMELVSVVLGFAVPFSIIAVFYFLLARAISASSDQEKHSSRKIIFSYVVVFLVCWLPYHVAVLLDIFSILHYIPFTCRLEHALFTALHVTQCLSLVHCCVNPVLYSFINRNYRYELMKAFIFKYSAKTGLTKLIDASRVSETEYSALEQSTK
CXCR7, sequence (P32121 whole entry partner): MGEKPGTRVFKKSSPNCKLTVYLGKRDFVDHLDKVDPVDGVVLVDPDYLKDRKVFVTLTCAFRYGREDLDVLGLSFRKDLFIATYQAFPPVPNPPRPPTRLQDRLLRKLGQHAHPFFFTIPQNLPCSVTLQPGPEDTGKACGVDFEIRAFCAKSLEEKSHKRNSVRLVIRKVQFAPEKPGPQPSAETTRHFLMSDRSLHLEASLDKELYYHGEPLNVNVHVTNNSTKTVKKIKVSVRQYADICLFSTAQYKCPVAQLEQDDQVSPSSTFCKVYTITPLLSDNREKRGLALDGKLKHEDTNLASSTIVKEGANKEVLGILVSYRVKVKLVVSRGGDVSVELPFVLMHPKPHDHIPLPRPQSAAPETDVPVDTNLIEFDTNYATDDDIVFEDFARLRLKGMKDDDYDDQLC

Cc1cncc(C(=O)Nc2cccc(CN3CC[C@H](C(=O)NC4CCCCC4)C[C@@H]3C)c2)c1 (racemic) [Example 2.104, rac-N-[3-((2S*,4S*)-4-Cyclohexylcarbamoyl-2-methyl-piperidin-1-ylmethyl)-phenyl]-5-methyl-nicotinamide]
EC50: 4 nM

rac-6-Trifluoromethyl-pyridine-2-carboxylic acid [3-((2S*,4S*)-4-cyclohexylcarbamoyl-2-methyl-piperidin-1-ylmethyl)-phenyl]-amide [Example 2.101]
EC50: 5 nM

O=C(Nc1cccc(CN2CCC(C(=O)NC3CCCCC3)CC2)c1)c1ccc(Cl)cc1Cl [Example 1.138]
EC50: 6 nM

O=C(Nc1cccc(CN2CCC(C(=O)NC3CCCC3)CC2)c1)c1ccc2ncccc2c1 [Example 1.213]
EC50: 3 nM

O=C(Nc1cccc(CN2CCC(C(=O)NC3CCCCC3)CC2)c1)C1CCC1 [Example 1.150]
EC50: 25 nM

O=C(Cc1ccccn1)Nc1cccc(CN2CCC(C(=O)NC3CCCCC3)CC2)c1 [Example 1.013]
EC50: 20 nM

COc1ccc(C(=O)Nc2cccc(CN3CCC(C(=O)NC4CCCCC4)CC3)c2)cc1C [Example 1.122]
EC50: 15 nM

O=C(Nc1cccc(CN2CCC(C(=O)NC3CCCCC3)CC2)c1)c1cnc(Cl)c(Cl)c1 [Example 1.090]
EC50: 6 nM

O=C(Nc1cccc(CN2CCC(C(=O)NC3CCCCC3)CC2)c1)c1ccc(Cl)c(Cl)c1 [Example 1.140]
EC50: 5 nM

CC(C)(C)NC(=O)C1CCN(Cc2cccc(NC(=O)c3cccc(C(F)(F)F)c3)c2)CC1 [Example 1.237]
EC50: 4 nM

CC(C)(C)NC(=O)C1CCN(Cc2cccc(NC(=O)c3cccnn3)c2)CC1 [Example 1.322]
EC50: 4 nM

CC(C)(C)NC(=O)C1CCN(Cc2cccc(NC(=O)Cc3c(C(F)(F)F)ccc(Cl)c3Cl)c2)CC1 [Example 1.251]
EC50: 3 nM

CC(C)(C)NC(=O)C1CCN(Cc2cccc(NC(=O)c3ccc(N)cn3)c2)CC1 [Example 8.001, 5-Amino-pyridine-2-carboxylic acid [3-(4-tert-butylcarbamoyl-piperidin-1-ylmethyl)-phenyl]-amide]
EC50: 4 nM

CC(c1cccc(NC(=O)c2ccccn2)c1)N1CCC(C(=O)NC2CCCCC2)CC1 (racemic) [Example 1.169]
EC50: 12 nM

CCc1ccc(NC(=O)c2cncc(C)c2)cc1CN1CCC(C(=O)NC(C)(C)C)CC1 [Example 1.333]
EC50: 57 nM

O=C(Nc1cccc(CN2CCC(C(=O)NC3CCCCC3)CC2)c1)c1n[nH]c2ccccc12 [Example 1.008]
EC50: 35 nM

O=C(Nc1cccc(CN2CCC(C(=O)NC3CCCCC3)CC2)c1)c1ccncn1 [Example 1.006]
EC50: 2 nM

O=C(Nc1cccc(CN2CCC(C(=O)NC3CCCCC3)CC2)c1)c1ncc[nH]1 [Example 1.038]
EC50: 13 nM

CC(C)C(=O)Nc1cccc(CN2CCC(C(=O)NC3CCCCC3)CC2)c1 [Example 1.016]
EC50: 121 nM

CCc1cc(CN2CCC(C(=O)NC(C)(C)C)CC2)cc(NC(=O)c2cccc(C(F)(F)F)n2)c1 [Example 1.329]
EC50: 159 nM

O=C(Cc1ccccc1)Nc1cccc(CN2CCC(C(=O)NC3CCCCC3)CC2)c1 [Example 1.011]
EC50: 7 nM

CC(C)(C)NC(=O)C1CCN(Cc2cccc(NC(=O)c3ccc(F)cc3)c2)CC1 [Example 1.223]
EC50: 0.5 nM

O=C(Nc1cccc(CN2CCC(C(=O)NC3CCCCC3)CC2)c1)c1ncccc1Br [Example 1.085]
EC50: 1 nM

Cc1ccnc(C(=O)Nc2cccc(C(C)N3CCC(C(=O)NC4CCCCC4)CC3)c2)c1 (racemic) [Example 1.191]
EC50: 64 nM

Cc1cc(F)ccc1C(=O)Nc1cccc(CN2CCC(C(=O)NC3CCCCC3)CC2)c1 [Example 1.115]
EC50: 5 nM

COc1cccc(CC(=O)Nc2cccc(CN3CCC(C(=O)NC4CCCCC4)CC3)c2)c1 [Example 1.047]
EC50: 17 nM

O=C(Nc1cc(CN2CCC(C(=O)NC3CCCCC3)CC2)ccc1Cl)c1ccncn1 [Example 1.157]
EC50: 2 nM

CN(C)C/C=C/C(=O)Nc1cccc(CN2CCC(C(=O)NC(C)(C)C)CC2)c1 [Example 1.342]
EC50: 216 nM

CC(c1cccc(NC(=O)c2ccc(C#N)cc2)c1)N1CCC(C(=O)NC2CCCCC2)CC1 (racemic) [Example 1.178]
EC50: 64 nM

Cc1cc(CN2CCC(C(=O)NC(C)(C)C)CC2)cc(NC(=O)c2cccc(C(F)(F)F)n2)c1 [Example 1.316]
EC50: 36 nM

COc1ccc(C(=O)Nc2cccc(CN3CCC(C(=O)NC4CCCCC4)CC3)c2)cc1OC [Example 1.126]
EC50: 70 nM

CC(c1cccc(NC(=O)c2cccc(C(F)(F)F)n2)c1)N1CCC(C(=O)NC2CCCCC2)CC1 (racemic) [Example 1.187]
EC50: 7 nM

Cc1cncc(C(=O)Nc2ccc(Cl)c(CN3CCC(C(=O)NC4CCCC4)CC3)c2)c1 [Example 1.226]
EC50: 2 nM

O=C(Nc1cccc(CN2CCC(C(=O)NC3CCCCC3)CC2)c1)c1ccc(F)cc1Cl [Example 1.133]
EC50: 7 nM

Cc1cncc(C(=O)Nc2cccc(CN3CC[C@H](C(=O)NC(C)(C)C)C[C@@H]3C)c2)c1 (racemic) [Example 2.103, rac-N-[3-((2S*,4S*)-4-tert-Butylcarbamoyl-2-methyl-piperidin-1-ylmethyl)-phenyl]-5-methyl-nicotinamide]
EC50: 17 nM

Cc1cncc(C(=O)Nc2ccc(C)c(CN3CCC(C(=O)NC(C)(C)C)CC3)c2)c1 [Example 1.299]
EC50: 3 nM

CC(C)CN(C)C(=O)C1CCN(Cc2cccc(NC(=O)c3ccc(F)cc3)c2)CC1 [Example 1.273]
EC50: 2 nM

O=C(Nc1cccc(CN2CCC(C(=O)NC3CCCCC3)CC2)c1)C1CCCC1 [Example 1.017]
EC50: 29 nM

O=C(Nc1cc(CN2CCC(C(=O)NC3CCCCC3)CC2)ccc1Cl)c1ccc(Cl)cc1 [Example 1.160]
EC50: 5 nM

CC(C)c1ccc(C(=O)Nc2cccc(CN3CCC(C(=O)NC4CCCCC4)CC3)c2)cc1 [Example 1.098]
EC50: 12 nM

COc1ccc(C(=O)Nc2cccc(CN3CCC(C(=O)NC4CCCCC4)CC3)c2)cc1 [Example 1.031]
EC50: 2 nM

CCc1cc(CN2CCC(C(=O)NC(C)(C)C)CC2)cc(NC(=O)c2cncc(C)c2)c1 [Example 1.330]
EC50: 285 nM

O=C(Nc1cccc(CN2CCC(C(=O)NC3CCCCC3)CC2)c1)c1ccc(Cl)cc1F [Example 1.130]
EC50: 7 nM

N#Cc1cccc(C(=O)Nc2cccc(CN3CCC(C(=O)NC4CCCCC4)CC3)c2)c1 [Example 1.106]
EC50: 12 nM

CCC(c1cccc(NC(=O)c2cncc(C)c2)c1)N1CCC(C(=O)NC2CCCCC2)CC1 (racemic) [Example 1.307]
EC50: 350 nM

O=C(Nc1cccc(CN2CCC(C(=O)NC3CCCCC3)CC2)c1)c1cc(C(F)(F)F)ccc1F [Example 1.135]
EC50: 7 nM

CC(C)(C)NC(=O)C1CCN(Cc2cccc(NC(=O)Cc3c(F)ccc(Cl)c3Cl)c2)CC1 [Example 1.253]
EC50: 4 nM

O=C(Nc1cccc(CN2CCC(C(=O)NC3CCCCC3)CC2)c1)c1ccc(Cl)s1 [Example 1.282]
EC50: 5 nM

COc1ccc(NC(=O)c2ccc(F)cc2)cc1CN1CCC(C(=O)NC(C)(C)C)CC1 [Example 1.298]
EC50: 19 nM

CC(c1cccc(NC(=O)c2ccc(Cl)cn2)c1)N1CCC(C(=O)NC2CCCCC2)CC1 (racemic) [Example 1.168]
EC50: 2 nM

O=C(Nc1cccc(CN2CCC(C(=O)NC3CCCCC3)CC2)c1)c1ccc(F)c(F)c1 [Example 1.129]
EC50: 2 nM

Cn1cc(C(=O)Nc2cccc(CN3CCC(C(=O)NC4CCCCC4)CC3)c2)c2ccccc21 [Example 1.026]
EC50: 182 nM

O=C(Nc1cccc(CN2CCC(C(=O)NC3CCCCC3)CC2)c1)c1cc(C(F)(F)F)cc(C(F)(F)F)c1 [Example 1.136]
EC50: 43 nM

CC(C)(C)NC(=O)C1CCN(Cc2cccc(NC(=O)c3ccccc3C(F)(F)F)c2)CC1 [Example 1.239]
EC50: 17 nM

CN(C)c1ccc(C(=O)Nc2cccc(CN3CCC(C(=O)NC4CCCCC4)CC3)c2)cc1 [Example 1.096]
EC50: 40 nM

CC(C)(C)NC(=O)C1CCN(Cc2cccc(NC(=O)c3ccc(C(F)(F)F)cn3)c2)CC1 [Example 1.229]
EC50: 0.5 nM

CCN(CC)c1ccc(C(=O)Nc2cccc(C(C)N3CCC(C(=O)NC4CCCCC4)CC3)c2)cn1 (racemic) [Example 1.196]
EC50: 491 nM

COc1ccc(C(=O)Nc2cc(CN3CCC(C(=O)NC4CCCCC4)CC3)ccc2Cl)cc1 [Example 1.159]
EC50: 14 nM

Cc1cncc(C(=O)Nc2cc(CN3CCC(C(=O)NC(C)(C)C)CC3)ccc2C)c1 [Example 1.302]
EC50: 6 nM

COc1ccc(CC(=O)Nc2cccc(CN3CCC(C(=O)NC4CCCCC4)CC3)c2)cc1 [Example 1.042]
EC50: 79 nM

CN(C)c1cccc(C(=O)Nc2cccc(CN3CCC(C(=O)NC4CCCCC4)CC3)c2)c1 [Example 1.144]
EC50: 73 nM

Cc1ccc(C(=O)Nc2cccc(CN3CCC(C(=O)NC4CCCCC4)CC3)c2)s1 [Example 1.281]
EC50: 3 nM

CCc1cc(CN2CCC(C(=O)NC(C)(C)C)CC2)cc(NC(=O)c2ccc(F)cc2)c1 [Example 1.331]
EC50: 62 nM

O=C(Nc1cccc(CN2CCC(C(=O)NC3CCCCC3)CC2)c1)c1cc(Cl)cc(Cl)c1 [Example 1.139]
EC50: 22 nM

COc1cc(CN2CCC(C(=O)NC(C)(C)C)CC2)cc(NC(=O)c2ccc(F)cc2)c1 [Example 1.280]
EC50: 409 nM

Cc1cncc(C(=O)Nc2cccc(CN3CCC(C(=O)NC(C)(C)C)C3)c2)c1 (racemic) [Example 2.096, rac-N-[3-(3-tert-Butylcarbamoyl-pyrrolidin-1-ylmethyl)-phenyl]-5-methyl-nicotinamide]
EC50: 28 nM

O=C(Nc1cccc(CN2CCC(C(=O)NC3CCCCC3)CC2)c1)c1ccc(Cl)nc1Cl [Example 1.091]
EC50: 12 nM

Cc1cccc(C(=O)Nc2cccc(CN3CCC(C(=O)NC4CCCCC4)CC3)c2)n1 [Example 1.081]
EC50: 0.9 nM

Cc1ccc(C(=O)Nc2cc(CN3CCC(C(=O)NC4CCCCC4)CC3)ccc2Cl)s1 [Example 1.158]
EC50: 14 nM
